Measurements taken from patent publication US6468983B2, “RNase L activators and antisense oligonucleotides effective to treat telomerase-expressing malignancies” (The Cleveland Clinic Foundation, priority 1997, dated 2002).

Experiments:
[1] = tested on: U251-MG cells; test: Cell viability assay, trypan blue dye exclusion, oligonucleotide in water every 12 hr; type: cell-based, human; details: 5 micromolar every 12 hr
Method: (§1) The cytotoxic effect of 2-5A activator antisense complexes on tumor cells was determined using the trypan blue dye exclusion assay. Tumor cells were seeded at 10^4 cells/well (0.1 ml) in 96-well flat-bottomed plates and incubated overnight at 37° C. Then, oligonucleotides (5 micromolar) in water were added into cells every 12 hr. On successive days the cells were harvested and 25% of the total was examined microscopically to determine the percentage of viable cells, another 25% was replated to continue treatment and the remaining 50% were used for the TRAP assay.
Knowing that hTR could be inactivated by the 2-5A antisense treatment, U251-MG cells were treated every 12 hours over a 14 day period with the same three oligonucleotides. 79% of the cells treated with spA4-anti-hTR were killed over the 14 day period with a significant (50%) reduction in cell viability after only 5 days. […] These experiments have since been repeated on a number of occasions with U251-MG cells to test new batches of oligonucleotides, always with the same results. […] Thus, after 14 days from the initial treatment with spA4-anti-hTR, the viability of U251-MG cells, as shown by Trypan-blue exclusion assays, was suppressed in all cases.

[2] = tested on: normal human astrocytes (PIN); test: Cell viability assay, trypan blue, same protocol on telomerase-negative normal astrocytes; type: cell-based; details: same protocol as the tumor cells, over the treatment period
Method: as §1

[3] = tested on: U373 cells; test: Viable cell count (trypan blue), daily oligonucleotide plus lipofectamine; type: cell-based, human
Method: (§2) Cells (10,000/well) were seeded on 96 well tissue culture dishes, and treated every 24 hours. A 10× concentrated mixture of oligonucleotides plus lipofectamine in water was prepared containing 5 micromolar oligonucleotide and 80 microgram per ml lipofectamine™ (Gibco/BRL) and incubated for 10 min at room temperature. Media was removed from the cells, 10 microliters of the oligonucleotide/lipofectamine mixture was added directly to the cultured cells followed by 90 microliters of media plus serum. The media was changed with oligonucleotide/lipofectamine treatments every 24 h. Cells were passaged when the control cells reached confluency, and viable cells were counted after staining with Trypan Blue (GibcoBRL). The numbers of cells treated only with lipofectamine were used as the control to calculate percentages of cell survival or viability.

[4] = tested on: normal diploid human fibroblasts (MRC5); test: Viable cell count, daily oligonucleotide plus lipofectamine; type: cell-based; details: MRC5, 0.5 micromolar daily plus lipofectamine, 8 days
Method: as §2
(§3) For the experiments described below, lipofectamine was used to enhance the uptake of the oligonucleotides into cells (Williams et al., 1996, Leukemia 10:[…]). […] Using this protocol for 8 days, SpA4-anti-hTR reduced cell viability by 9% and 35% in the normal human lung cell line, WI 38, and in normal diploid human fibroblasts (MRC5), respectively, while causing a 90% reduction in the viability of U373 cells.

[5] = tested on: normal human lung cell line, WI 38; test: as above; type: cell-based; details: WI 38, 0.5 micromolar daily plus lipofectamine, 8 days
Method: as §2, §3

[6] = tested on: breast cancer cell line, MDA468; test: as above; type: cell-based, human; details: MDA468, 0.5 micromolar daily plus lipofectamine
Method: as §2
(§4) Similarly, the viability of the breast cancer cell line, MDA468, was reduced by 64% by SpA4-anti-hTR, while the control oligonucleotides reduced cell viability by <20% (FIG. 6). Viability of the human melanoma cell line, A375, was reduced by 43% in three days by SpA4-anti-hTR, while the control oligonucleotides had no effect (FIG. 7). […] Viability of a third human melanoma cell line, SK-MEL-5, was reduced by 43% by SpA4-anti-hTR, with minimal effects by the control oligonucleotides (FIG. 7). Two prostate tumor cells lines, PC3 and DU145, were suppressed by SpA4-anti-hTR treatments by 45% and 60%, respectively (FIGS. 6 and 10). […] The viability of the malignant glioma cell line, U373, was reduced by about 60% in 3 days, with intermediate effects by the control oligonucleotides (FIG. 6). Therefore, the proliferation and survival of every tumor cell type tested was inhibited by SpA4-anti-hTR. […] In contrast, there was no apoptosis detected in the control cells treated with lipofectamine without oligonucleotide (FIG. 12 upper panel).

[7] = tested on: prostate tumor cell line DU145; test: as above; type: cell-based, human; details: DU145, 0.5 micromolar daily plus lipofectamine
Method: as §2, §4

[8] = tested on: prostate tumor cell line PC3; test: as above; type: cell-based, human; details: PC3, 0.5 micromolar daily plus lipofectamine
Method: as §2, §4

[9] = tested on: renal cell carcinoma cell line, RCC; test: as above; type: cell-based, human; details: 0.5 micromolar daily plus lipofectamine
Method: as §2, §4

[10] = tested on: human melanoma cell line, A375; test: as above; type: cell-based; details: A375, 0.5 micromolar daily plus lipofectamine
Method: as §2, §4

[11] = tested on: human melanoma cell line, SK-MEL-2; test: as above; type: cell-based; details: SK-MEL-2, 0.5 micromolar daily plus lipofectamine
Method: as §2, §4

[12] = tested on: human melanoma cell line, SK-MEL-5; test: as above; type: cell-based; details: SK-MEL-5, 0.5 micromolar daily plus lipofectamine
Method: as §2, §4

[13] = U373, 0.5 micromolar daily plus lipofectamine, 3 days

With “Sp5′A2′p(5′A2p)3-[(Bu)p]2-5′GCG CGG GGA GCA AAA GCA C3′-3′T5′ (antisense GCGCGGGGAGCAAAAGCAC; 5'-thiophosphate 2-5A tetramer, butanediol linkers, 3'-3'T cap, chemistry not fully specified) [spA4-anti-hTR, 2-5A tetramer linked by butanediol linkers to 19-mer antisense against human telomerase RNA nucleotides 76 to 94]” the “cell death / effect on viability (in words)” value ([1]; 14 days) was “vast majority of cells can be killed”, the “reduction in cell viability” value ([1]; after 5 days) was 50% and the cells killed ([1]; over the 14 day period) was 79%. The “reduction in cell viability” value [2] was “less than 5%”, the “reduction in cell viability” value ([2]; listed as SpA4-anti-hTR) was 2-3% and the “increase in the anti-tumor cell effect by use of lipofectamine” value ([3]; 0.5 micromolar once a day with lipofectamine versus without) was “about 10 fold”. The “effect on growth/viability (in words)” value [3, 13] was “specifically suppressed growth”, the reduction in viability [3, 13] was “about 60%” and the “cell viability reduced to” value ([3]; U373, 0.5 micromolar daily plus lipofectamine, 7 days, two separate cultures) was < 2%. For the same substance, the reduction in viability ([3]; U373, 0.5 micromolar daily plus lipofectamine, 8 days) was 90%, the “reduction of the dose required to block proliferation and survival of tumor cells using lipofectamine” value ([3]; with lipofectamine versus without) was 10 fold and the “reduction in cell viability” value [4] was 35%. For the same substance, the “reduction in cell viability” value [5] was 9%, the “effect on growth (in words)” value [6] was “specifically suppressed growth” and the reduction in viability [6] was 64%. The “effect on growth/viability (in words)” value [7] was “specifically suppressed growth”, the suppression of cells [7] was 60% and the “effect on growth/viability (in words)” value [8] was “specifically suppressed growth”. For the same substance, the suppression of cells [8] was 45%, the “effect on growth/viability (in words)” value ([9]; 3 days) was “specifically suppressed growth” and the reduction in viability ([9]; three days) was 61%. The “effect on growth/viability (in words)” value [10] was “specifically suppressed growth”, the reduction in viability ([10]; three days) was 43% and the “effect on growth/viability (in words)” value [11] was “specifically suppressed growth”. For the same substance, the survival [11] was < 0.1%, the “effect on growth/viability (in words)” value [12] was “specifically suppressed growth” and the reduction in viability [12] was 43%.
